Assay results taken from patent US20150031102A1, “METHODS AND COMPOSITIONS FOR ENHANCED PRODUCTION OF BUTANOL BY CLOSTRIDIA” (Butrolix LLC, priority 2012, published 2015).

Tested on: C. acetobutylicum
Test: Continuous culture, 2.5 L, dilution rate 0.01 per hour, 20 days (butanol, residual glucose, optical density, pH, yield, productivity)
Format: cell-based, Clostridium acetobutylicum
Conditions: for Productivity / Yield / Butanol: 50 nM peptide, Table 54; for Butanol: average ± SD of triplicate samples
Procedure: Lastly, 2.5 L continuous culture studies were conducted using the optimum peptide treatment level that was determined by the sequential batch transfer experiments. An untreated and a peptide-treated culture were grown in parallel, identical vessels with identical dilution rates for 20 days. The continuous cultures were initiated by inoculating 2.25 L of sterile medium in each culture vessel using 250 mL of peptide-treated and untreated batch cultures that had been grown for 24 hours. The batch cultures used as inoculum were the third of sequential batch transfer cultures, which made inoculation of the continuous cultures the fourth sequential transfer. After inoculation, the continuous cultures were grown for 24 hours before beginning to feed fresh medium at a rate of 0.01 volumes per hour. Triplicate samples were taken from each continuous culture every 24 hours. Optical density of the replicates was measured and culture supernatants were recovered following centrifugation and analyzed later for butanol and residual glucose concentrations. The analyses were used to calculate yield and productivity of the cultures.
Clostridium acetobutylicum strain ATCC 824 was used in all experiments and the growth medium used for sequential batch transfer, time course, and continuous culture experiments contained yeast extract, casamino acids, L-cysteine, L-asparagine, phosphate buffer, trace minerals, and 6% glucose. What are believed to be quorum-sensing peptides that were used in the experiments were chemically synthesized peptides SEQ ID NO: 143 (amino acid sequence: SYPGWSW) and SEQ ID NO: 144 (amino acid sequence: ILILISG). Routine growth of the bacteria as well as the sequential batch and time course experiments were conducted in a Form a Scientific Model 1029 anaerobic gas chamber at 32° C. Continuous cultures were performed at 32° C. using duplicate New Brunswick Scientific BioFlo 3000 apparati with a dilution rate of 0.01 volume per hour, 75 rpm agitation, and nitrogen gas sparging. Optical density of culture samples was measured at 600 nm in a Beckman DU 600 series spectrophotometer and glucose was analyzed using a YSI Model 2700 Select Biochemistry Analyzer with internal glucose calibration. Butanol concentrations were determined by measuring experimental and standard samples using a Varian Saturn 3 Gas Chromatograph/Mass Spectrometer and calculating butanol concentrations using standard curves.
Data from continuous cultures using a 6% glucose medium in vessels with a working volume of 2.5 L run at a dilution rate of 0.01 per hour. Two vessels were run in parallel, one of which was treated with 50 nM of peptide SEQ ID NO: 143 and the other was untreated. The vessels were sparged continuously with nitrogen gas to maintain anaerobic conditions and were agitated at 75 rpm. On Day 0, the vessels were inoculated with a 1/10 volume (250 mL) of overnight cultures that were either treated with peptide or untreated, and that were the third transfer of the cultures, which made inoculation of the continuous cultures the fourth transfer. Triplicate samples were collected aseptically from each vessel immediately after inoculation and every 24 hours thereafter. The cultures were allowed to grow for 24 hours prior to beginning to feed fresh medium, and were maintained for 20 days each, without pH control. The optical density of each sample was measured immediately at 600 nm, the samples were centrifuged to remove cells, and the cell-free supernatants were frozen for later analysis. A representative experiment is shown in FIG. 19 and Tables 34 and 35.
Using the optimum peptide treatment level that was determined by the sequential batch transfer experiments, 2.5 L continuous culture studies were conducted. An untreated and a peptide-treated culture were grown in parallel, identical vessels using the same dilution rates for 20 days for each of the peptides BP110517 and BP1106213. […]

[1] = 24 hour period preceding day 10
[2] = 24 hour period preceding day 11
[3] = 24 hour period preceding day 12
[4] = 24 hour period preceding day 13
[5] = 24 hour period preceding day 14
[6] = 24 hour period preceding day 15
[7] = 24 hour period preceding day 16
[8] = 24 hour period preceding day 17
[9] = 24 hour period preceding day 18
[10] = 24 hour period preceding day 19
[11] = 24 hour period preceding day 20

## ILILISG (Derived from Clostridium acetobutylicum SEQ ID NO: 110) [peptide SEQ ID NO: 144]
50 nM BP1106213, starting at day 2 and throughout the rest of the study
  Butanol content compared with the untreated culture: untreated culture remained significantly higher
50 nM BP1106213 and its untreated control, after the first 4 days, for the duration of both cultures
  pH: ~4.2
50 nM BP1106213 and its untreated control, almost the complete duration of the cultures
  Optical density (600 nm): above 2.0
50 nM BP1106213 and untreated, day three through the end of the study
  Glucose consumption: entirely consumed
24 hour period preceding day 1
  Productivity: 0.53 g Butanol/L-h
  Yield: 0.19 g Butanol/g Glucose
24 hour period preceding day 2
  Productivity: −0.17 g Butanol/L-h
  Yield: −0.28 g Butanol/g Glucose
24 hour period preceding day 3
  Productivity: 0.07 g Butanol/L-h
  Yield: 0.11 g Butanol/g Glucose
24 hour period preceding day 4
  Productivity: 0.29 g Butanol/L-h
  Yield: 0.46 g Butanol/g Glucose
24 hour period preceding day 5
  Productivity: 0.24 g Butanol/L-h
  Yield: 0.39 g Butanol/g Glucose
24 hour period preceding day 6
  Productivity: 0.07 g Butanol/L-h
  Yield: 0.11 g Butanol/g Glucose
24 hour period preceding day 7
  Productivity: 0.14 g Butanol/L-h
  Yield: 0.23 g Butanol/g Glucose
24 hour period preceding day 8
  Productivity: 0.06 g Butanol/L-h
  Yield: 0.10 g Butanol/g Glucose
24 hour period preceding day 9
  Productivity: 0.07 g Butanol/L-h
  Yield: 0.11 g Butanol/g Glucose
[1]
  Productivity: 0.00 g Butanol/L-h
  Yield: 0.01 g Butanol/g Glucose
[2]
  Productivity: 0.20 g Butanol/L-h
  Yield: 0.33 g Butanol/g Glucose
[3]
  Productivity: 0.02 g Butanol/L-h
  Yield: 0.04 g Butanol/g Glucose
[4]
  Productivity: −0.11 g Butanol/L-h
  Yield: −0.18 g Butanol/g Glucose
[5]
  Productivity: 0.00 g Butanol/L-h
  Yield: 0.00 g Butanol/g Glucose
[6]
  Productivity: 0.03 g Butanol/L-h
  Yield: 0.05 g Butanol/g Glucose
[7]
  Productivity: 0.11 g Butanol/L-h
  Yield: 0.17 g Butanol/g Glucose
[8]
  Productivity: −0.01 g Butanol/L-h
  Yield: −0.02 g Butanol/g Glucose
[9]
  Productivity: 0.01 g Butanol/L-h
  Yield: 0.01 g Butanol/g Glucose
[10]
  Productivity: 0.06 g Butanol/L-h
  Yield: 0.09 g Butanol/g Glucose
[11]
  Productivity: 0.01 g Butanol/L-h
  Yield: 0.01 g Butanol/g Glucose
Day 0
  Butanol: 0.6 ± 0.0 g/L
Day 1
  Butanol: 7.0 ± 0.5 g/L
Day 2
  Butanol: 8.2 ± 0.9 g/L
Day 3
  Butanol: 6.9 ± 0.6 g/L
Day 4
  Butanol: 5.0 ± 0.2 g/L
Day 5
  Butanol: 4.6 ± 0.3 g/L
Day 6
  Butanol: 5.2 ± 0.2 g/L
Day 7
  Butanol: 4.9 ± 0.2 g/L
Day 8
  Butanol: 5.6 ± 0.0 g/L
Day 9
  Butanol: 5.1 ± 0.1 g/L
Day 10
  Butanol: 5.1 ± 0.0 g/L
Day 11
  Butanol: 5.2 ± 0.2 g/L
Day 12
  Butanol: 5.1 ± 0.1 g/L
Day 13
  Butanol: 5.0 ± 0.1 g/L
Day 14
  Butanol: 5.4 ± 0.1 g/L
Day 15
  Butanol: 5.5 ± 0.1 g/L
Day 16
  Butanol: 5.5 ± 0.1 g/L
Day 17
  Butanol: 5.3 ± 0.1 g/L
Day 18
  Butanol: 5.1 ± 0.2 g/L
Day 19
  Butanol: 4.3 ± 0.2 g/L
Day 20
  Butanol: 2.9 ± 0.1 g/L
Continuous cultures
  Effect on differentiation and butanol production: strong inhibitor of differentiation and butanol production
